For data set [1], the system named is 1a-H77 sub-genomic replicon, NS5B S282T. Briefly: microbe, parasite or virus in culture. The format is cell-based, hepatitis C virus. The procedure:
(§1) (Lam et al., J. Virology (2011) 85(23): 12334-12342; Lam et al., Antimicrob. Agents Chemother. (2012) 56(6): 3359-3368.) S282T mutations in NS5B were created by site-directed mutagenesis in 1a-H77, 1b con-1, and 2a JFH1 sub-genomic replicons. 1b con-1-based chimeric replicons containing 2b, 3a, 4a, 5a, or 6a NS5B were also engineered to harbor the S282T mutation. […] Relative percentages of mutant and WT were assessed by deep sequencing.

Data set [2] has as its system 1a-H77 sub-genomic replicon, wild-type NS5B. Briefly: Transient replicon assay. The format is cell-based. Particulars: Hepatitis C virus, read-out: EC50 WT. The procedure: as §1
Data set [3] concerns 1b con-1-based chimeric replicon containing 5a NS5B, wild-type. Briefly: Transient replicon assay. In kind it is cell-based. Conditions: Hepatitis C virus, read-out: EC50 WT. The procedure: as §1
For data set [4], the system named is mixture of 50% S282T and 50% WT in GT2a replicons. Briefly: Long-term passaging study with deep sequencing. In kind it is cell-based, hepatitis C virus. Set-up: population mutant S282T: concentration or dose not given beside the values. Conditions: over fifteen days. An excerpt:
In vitro studies have shown that S282T is the primary mutation selected by GS-7977 in HCV genotype 1a, 1b and 2a replicon cells. (Lam et al., J. Virology (2011) 85(23): 12334-12342; Lam et al., Antimicrob. Agents Chemother. (2012) 56(6): 3359-3368.) S282T mutations in NS5B were created by site-directed mutagenesis in 1a-H77, 1b con-1, and 2a JFH1 sub-genomic replicons. 1b con-1-based chimeric replicons containing 2b, 3a, 4a, 5a, or 6a NS5B were also engineered to harbor the S282T mutation. […] Relative percentages of mutant and WT were assessed by deep sequencing.
(See also Han et al., 63rd Annual Meeting of the American Association for the Study of Liver Diseases, Poster 1078, Nov. 11, 2012.)

Data set [5] can be described thus: ELECTRON Grade 3/4 hematologic (laboratory) abnormalities. In kind it is in vivo, human. Conditions: Groups 1-6 (GT2/GT3 Tx-naive).
A further data set deals with HCV NS5B S282T. Briefly: GS-7977 resistance in Phase 2 clinical studies, population and deep sequencing of NS5B. In kind it is in vivo, human. Particulars: one GT2b patient, relapse 4 weeks after 12 weeks of monotherapy.

Take `CC(C)OC(=O)[C@H](C)N[P@](=O)(OC[C@H]1O[C@@H](n2ccc(=O)[nH]c2=O)[C@](C)(F)[C@@H]1O)Oc1ccccc1` [GS-7977, (S)-isopropyl 2-(((S)-(((2R,3R,4R,5R)-5-(2,4-dioxo-3,4-dihydropyrimidin-1(2H)-yl)-4-fluoro-3-hydroxy-4-methyltetrahydrofuran-2-yl)methoxy)(phenoxy)phosphoryl)amino)propanoate]: the concentration for a half-maximal effect (EC50) in data set [1] (Hepatitis C virus, read-out: EC50 S282T) was 253 nM. Also, in data set [1] (genotype 1a, S282T from corresponding wild-type), the “Fold Change” value is listed as 10.1. The half-maximal effective concentration (EC50) in data set [2] turned out to be 25.1 nM. The EC50 in data set [3] came out at 9.91 nM. Besides, the “population mutant S282T” value in data set [4] came to 92%. Besides, in data set [5], the “Alanine aminotransferase Grade 3: n” value worked out at 0, the “Hemoglobin Grade 3: n” value came out at 0, the “INR Grade 3: n” value is 0 and the “Lymphocytes Grade 3: n” value was determined as 0. Moreover, in data set [5], the “Lymphocytes Grade 4: %” value is reported as 10%, the “Lymphocytes Grade 4: n” value was determined as 1, the “Neutropenia Grade 3: n” value came to 0 and the “Neutropenia Grade 4: n” value is given as 0. Also, the “White blood cells Grade 3: n” value in data set [5] was 0. The “S282T at relapse by deep sequencing” value with HCV NS5B S282T turned out to be 99%.

Values taken from patent publication US9549941B2, “Compositions and methods for treating hepatitis C virus” (priority 2011, dated 2017).
